Tests used:
[1] = test system: angiogenesis induced by bFGF in angiosponges; assay: AngioSponge assay: bFGF-induced neovascularisation of implanted gelfoam, CD31 staining; format: in vivo, C3H/Hej mice; conditions: i.p. once daily for 10 days, dioscin 10, deltonin 10, trillin 60, prosapogenin A 20, sorafenib 60 mg/kg; for Average number of blood vessels (CD31 counts): sponges excised Day 11
Source text: The AngioSponge™ assay enables slow release of agarose-captured growth factor, which stimulates endothelial cell proliferation and migration, and provides a tissue-like matrix for neovascularisation. The assay can be therefore be used to gauge the efficacy of treatments designed to inhibit angiogenesis, determined by counting blood vessels after CD31 immunohistochemical staining of endothelial cells (McCarty et al, International Journal of Oncology, 21:5-10, 2002).
Gelfoams (Pharmacia & Upjohn) were cut into approximately 7×7×7 mm pieces, under sterile conditions, and pre-soaked over night with sterile phosphate buffered saline. The hydrated gelfoams were then partially dried. Growth factor (bFGF) was diluted to an initial concentration of 2 μg/mL in warm (37° C.) 0.4% agarose. The partially dried gelfoams were placed in the growth factor solution, or in warm 0.4% agarose without growth factor, and then transferred to a Petri dish containing warm 0.4% agarose (1:1 dilution, final growth factor concentration 1 μg/mL) for polymerisation and solidification.
70 female C3H/Hej mice were microchipped, weighed and randomised based on body weight into 7 groups with 10 mice per group. For implantation, the mice were anaesthetised by halothane inhalation. A small channel forged with a trocar needle between the 3rd and 4th mammary gland, the sponge was inserted to the full depth of the channel and the incision closed with a wound clip.
The compounds were formulated in N-methylpyrrolidone (NMP):PEG300:Water (1:9:10, v/v). Dosing was established on the basis of in vitro IC50 data and preliminary toxicity studies. Compounds were administered daily by intraperitoneal injection, at a dosing volume of 10 mL/kg, once daily for the study period as shown in Table 5.
Treatment was started when all the animals had recovered fully from anaesthesia, and continued for 10 days. On Day 11, the angiosponges were excised and snap frozen in liquid nitrogen with OCT for CD31 staining on frozen sections.
CD31/PECAM-1 is an antigen present specifically on endothelial cells and can therefore be used as a marker for blood vessels. Frozen samples of the sponge were cryo-sectioned (12 μm), mounted on positively-charged Plus slides (Fisher Scientific), and air-dried for 30 minutes. Frozen sections were in turn fixed in cold acetone, acetone/chloroform (1:1, v/v), and acetone for 5 min each, and then washed with PBS (phosphate buffer saline). After blocking with PBS containing 5% normal horse serum and 1% normal goat serum, sections were incubated with PECAM-1 monoclonal rat anti-mouse CD31 antibody (1:5000 in blocking solution, PharMingen, San Diego, Calif.) for 4 hours at room temperature. The slides were then washed three times with PBS and incubated with adequate secondary anti-rat antibody. Positive reactions were visualized by incubating the slides in stable 3,3′-diaminobenzidine for 5-10 min. The sections were rinsed with distilled water, counter-stained with Gill's haematoxylin for 1 min, and mounted with Universal Mount (Research Genetics). […] Mouse placenta was used as a positive control. For quantification, 3 independent visual fields were chosen and positive stained spots or vessels with lumen were counted.
The Percent Induction for a treatment is the difference in CD31 counts between the treatment (+bFGF) and the vehicle alone (no bFGF), divided by the difference in CD31 counts between the vehicle with bFGF and the vehicle alone (no bFGF), expressed as a percentage.

[2] = test system: angiogenesis induced by bFGF in angiochambers; assay: AngioChamber assay: bFGF-induced fibrous capsule formation and haemoglobin (Drabkin) blood content; format: in vivo, FvB mice; conditions: i.p. once daily for 5 days, dioscin 10, deltonin 10, trillin 60, prosapogenin A 20, sorafenib 60 mg/kg; for Average blood content (from haemoglobin content): Drabkin assay; for Average chamber weight: wet weight on Day 6
Source text: The AngioChamber™ assay utilises the normal physiological process of wound healing, which promotes the formation of a fibrous capsule around an implanted chamber (Wood et al, (2000) Cancer Research, 60(8):2178-89). The inclusion of bFGF in the chamber induces blood vessel development in the fibrous capsule. The assay therefore assesses the efficacy of treatments by gauging their effect both on the fibrous capsule formation, measured by the wet weight of the capsule at the termination of the study and by determination of blood vessel supply to the chamber by assaying for haemoglobin content. The haemoglobin content of the fibrous capsule is a measure of neovascularisation, which is assayed by the Drabkin Assay.
The angiochambers were porous tissue chambers made of perfluoro-alkoxy-Teflon and filled with 0.8% agar containing 20 IU/mL heparin, with or without 1 μg/mL human bFGF. Both ends of the chamber were sealed with removable caps of the same material. The chambers were filled under sterile conditions with 0.8% agar containing 20 IU/mL heparin, with or without 1 μg/mL human bFGF. The agarose solution was maintained at 37° C. prior to filling the chambers.
70 female FvB mice were microchipped, weighed and randomised based on body weight into 7 groups with 10 mice per group. For implantation, the mice were anaesthetised by halothane inhalation. Approximately 150 μL sterile filtered air was injected subcutaneously in the back of each mouse, between the shoulder blades, resulting in an air pocket in which a small incision was made and the chamber inserted. The wound was closed with two 1.4 mm wound clips.
The treatments, which were all formulated in NMP:PEG300:Water (1:9:10, v/v) and administered daily by intraperitoneal injection, were as given in the Table 7:
Treatment was started when all the animals had recovered fully from anaesthesia, and continued for 5 days. On Day 6, the vascularised fibrous chambers were removed and the wet weight recorded for each implant. The chamber from each mouse was then snap frozen with liquid nitrogen and stored at −20° C. until assessed for haemoglobin content.
The fibrous capsule samples were thawed and kept on ice during the procedure. Sterile water was added to each thawed sample, and the sample homogenised with an UltraTourax at high speed. To avoid cross-contamination, the UltraTourax was flushed for 30 seconds with 5 mL distilled water after homogenising each sample. The homogenate was transferred into 2 mL Eppendorf tubes and stored on ice. The Eppendorf tubes were centrifuged at 4° C. and high speed (14,000 relative centrifugal force (RCF)) for 60 min. 1.0-1.5 mL of the intermediate aqueous solution (homogenate), between the pellet and the fat layer, was then transferred to fresh labelled 1.5 mL Eppendorf tubes and stored on ice. 50 μL of each homogenate was transferred into separate wells of a 96-well plate. 50 μL of water was transferred into 2 wells as blanks. 50 μL of Drabkin's reagent was then added to each well and mixed. After 15 min incubation at room temperature, the absorbance of each sample at 540 nm was measured and the volume of blood for each sample calculated from a standard curve.
The Percent Induction for a treatment is the difference in blood content between the treatment (+bFGF) and the vehicle alone (no bFGF), divided by the difference in blood content between the vehicle with bFGF and the vehicle alone (no bFGF), expressed as a percentage.

aortic explants = assay: Vessel growth (sprouts and branches) from mouse aortic explants in collagen gel; format: cell-based, C57BL6/J mice; conditions: for Branches Mean / Sprouts Mean: 1 μL/mL DMSO, 6 days culture, 8 replicates
Experimental: Three male C57BL6/J mice (9 weeks old) were sacrificed by CO2 asphyxiation and the blood harvested by heart puncture using a 29 gauge needle. The aorta was then dissected (from the aortic arch to the pleural/peritoneal interface) and placed in ice-cold DMEM supplemented with 10 mM Hepes and penicillin/streptomycin.
The fibrous and adipose tissues surrounding the aorta were removed by microscopic dissection and the aorta flushed of blood using ice cold DMEM. The aorta was then longitudinally bisected and cut into approximately 1 mm squares. Individual pieces of aorta were embedded in a drop (20 μL) of collagen solution in the bottom of a well of a 24 well tissue culture plate. The plates were then placed at 37° C./5% CO2 for 10 minutes to polymerise the collagen into a gel. Media (0.3 mL) alone, containing DMSO or deltonin in DMSO was then added to each well to form a moat around the collagen gel.
Only the central 8 wells of each 24 well plate were used for explant cultures to avoid differential gaseous exchange and evaporation rates between explant sample wells. The outer wells were filled with PBS.
Nine groups of 8 replicates each were tested:
The explants were then cultured at 37° C./5% CO2 in a humid incubator for 6 days. Explants were fixed at room temperature for 20 minutes by adding an equal volume (0.3 mL) of 4% paraformaldehyde in PBS to each well. After washing three times with HEPES-buffered saline (HBS, 150 mM NaCl, 10 mM HEPES) the explants were stained with 10 μg/ml FITC-BS-1 lectin conjugate (BS-1 lectin specifically binds mouse endothelial cells) in HBS overnight at 4° C. The following day the explants were washed three times with HBS. Vessel outgrowths from explants were visualised by fluorescence microscopy and photographs taken for data analysis. Multiple multidepth focus fluorescent images were photographed for each explant and the photographs processed using deconvolution software so that total vessel outgrowth for each explant could be determined Total cellular growth associated with each explant was also visualised by light microscopy using a dissecting microscope and documented by photography. For ease of visualisation and analysis a composite inverted black and white image was prepared from the multiple fluorescent images of the vessel outgrowths for each explant. The number of vessel sprouts and the number of vessel branches for each explant was then counted with the person counting being blinded to the identity of each sample. The results are summarised in Table 4, and shown graphically in FIG. 1.

SMILES	Percent Induction (CD31 counts relative to vehicle + bFGF minus vehicle alone) [1] [%]	Average number of blood vessels (CD31 counts) [1]	Percent Induction (blood content relative to vehicle + bFGF minus vehicle alone) [2] [%]	Average blood content (from haemoglobin content) [2] [µL]	Average chamber weight [2] [g]	also measured
C[C@@H]1CC[C@@]2(OC1)O[C@H]1C[C@H]3[C@@H]4CC=C5C[C@@H](O[C@@H]6O[C@H](CO)[C@@H](O)[C@H](O)[C@H]6O)CC[C@]5(C)[C@H]4CC[C@]3(C)[C@H]1[C@@H]2C [Trillin, diosgenin-Glc]	57	41	58	1.46	0.421	–
C[C@@H]1CC[C@@]2(OC1)O[C@H]1C[C@H]3[C@@H]4CC=C5C[C@@H](O[C@@H]6O[C@H](CO)[C@@H](O[C@@H]7O[C@@H](C)[C@H](O)[C@@H](O)[C@H]7O)[C@H](O)[C@H]6O[C@@H]6O[C@@H](C)[C@H](O)[C@@H](O)[C@H]6O)CC[C@]5(C)[C@H]4CC[C@]3(C)[C@H]1[C@@H]2C [Dioscin, diosgenin Rha2, [Rha4], Glc]	49	35	45	1.24	0.131	–
C[C@@H]1CC[C@@]2(OC1)O[C@H]1C[C@H]3[C@@H]4CC=C5C[C@@H](O[C@@H]6O[C@H](CO)[C@@H](O[C@@H]7O[C@H](CO)[C@@H](O)[C@H](O)[C@H]7O)[C@H](O)[C@H]6O[C@@H]6O[C@@H](C)[C@H](O)[C@@H](O)[C@H]6O)CC[C@]5(C)[C@H]4CC[C@]3(C)[C@H]1[C@@H]2C [Deltonin, diosgenin Rha2, [Glc4], Glc]	61	44	20	0.79	0.126	Branches Mean (aortic explants; 0.01 μM deltonin): 16; Sprouts Mean (aortic explants; 0.01 μM deltonin): 11; Branches Mean (aortic explants; 0.03 μM deltonin): 26; Sprouts Mean (aortic explants; 0.03 μM deltonin): 18; Branches Mean (aortic explants; 0.1 μM deltonin): 24; Sprouts Mean (aortic explants; 0.1 μM deltonin): 18; Branches Mean (aortic explants; 0.3 μM deltonin): 20; Sprouts Mean (aortic explants; 0.3 μM deltonin): 16; Branches Mean (aortic explants; 1 μM deltonin): 16; Sprouts Mean (aortic explants; 1 μM deltonin): 13; Branches Mean (aortic explants; 3 μM deltonin): 0; Sprouts Mean (aortic explants; 3 μM deltonin): 0; Branches Mean (aortic explants; 10 μM deltonin): 0; Sprouts Mean (aortic explants; 10 μM deltonin): 0; vessel branches from aortic explants in comparison to DMSO treated control explant cultures (aortic explants; at 10, 3 and 1 μM): significantly inhibited; vessel sprouts from aortic explants in comparison to DMSO treated control explant cultures (aortic explants; at 10 and 3 μM): significantly inhibited
C[C@@H]1CC[C@@]2(OC1)O[C@H]1C[C@H]3[C@@H]4CC=C5C[C@@H](O[C@@H]6O[C@H](CO)[C@@H](O)[C@H](O)[C@H]6O[C@@H]6O[C@@H](C)[C@H](O)[C@@H](O)[C@H]6O)CC[C@]5(C)[C@H]4CC[C@]3(C)[C@H]1[C@@H]2C [Prosapogenin A, diosgenin Rha2, Glc]	29	21	84	1.92	0.389	–
CNC(=O)c1cc(Oc2ccc(NC(=O)Nc3ccc(Cl)c(C(F)(F)F)c3)cc2)ccn1 [Sorafenib, reference compound]	3	2	27	0.92	0.322	–
